Among the data in PubChem BioAssay AID652155 (Sanford-Burnham Center for Chemical Genomics, 2013) are IC50 values, retold here.

Broadly, the IC50 is the concentration at which inhibition is half-maximal.

The assay relates to C. elegans VP596 hsp-16.2 GFP/RFP heat-shock reporter. Nature of the assay: inhibitors of heat-driven hsp-16.2 GFP expression – whole organism, C. elegans VP596, GFP/RFP ratio, counter-screen for SKN-1 inhibitor project, SAR follow-up (AID 652155).

Active and inactive are the calls of the source.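 How the source made its calls: active means compounds with mean IC50 of 15 µM or lower in the worm heat shock reporter counterscreen; inactive means the rest.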

With `Fc1ccc(-c2csc(-c3ccncc3)n2)cc1`, the IC50 was > 64 µM (inactive). As for `Cc1ccc(-c2csc(-c3ccncc3)n2)cc1`, the figure is > 64 µM (inactive); as for `CCOc1cc(CNC(C)C)cc(Cl)c1OCc1ccc(F)cc1`, > 64 µM (inactive); as for `c1ccc(-c2csc(-c3cccnc3)n2)cc1`, > 64 µM (inactive). In the case of `Fc1ccc(-c2csc(-c3cccnc3)n2)cc1`, the IC50 is > 64 µM (inactive). Next, `CCOc1cc(CNCc2ccccc2)cc(Cl)c1OCc1ccc(F)cc1`: > 64 µM (inactive). For `CCOc1cc(CNc2ccccc2)cc(Cl)c1OCc1ccc(F)cc1`, the IC50 is > 64 µM (inactive). Take `CCOc1cc(CNC2CCCC2)cc(Cl)c1OCc1ccc(F)cc1`: the IC50 was > 64 µM (inactive). As to `CCOc1cc(CNC2CCCC2)cc(Cl)c1OCc1ccc(Cl)cc1`, the IC50 was > 64 µM (inactive). As for `c1ccc(-c2csc(-c3ccncc3)n2)cc1`, the IC50 was > 64 µM (inactive). Regarding `CCOc1cc(CNC2CCCC2)cc(Cl)c1OC`, the IC50 is > 64 µM (inactive).

For `CCOc1cc(C(=O)NC2CCCC2)cc(Cl)c1OCc1ccc(F)cc1`, the IC50 is > 64 µM (inactive). `CCOc1cc(CNC2CCCC2)ccc1OCc1ccc(F)cc1`: the IC50 is > 64 µM (inactive). As to `Cc1ccc(-c2csc(-c3cccnc3)n2)cc1`, the IC50 is > 64 µM (inactive). For the compound `CCOc1cc(CNC2CCCC2)cc(Cl)c1OCc1ccc(C)cc1`, the IC50 is > 64 µM (inactive). Regarding `CCOc1cc(CNC2CC2)cc(Cl)c1OCc1ccc(F)cc1`, the IC50 was > 64 µM (inactive). Next, `Clc1ccc(-c2csc(-c3cccnc3)n2)cc1`: > 64 µM (inactive); `CCOc1cc(CNC2CCCC2)cc(Cl)c1OCc1cccc(F)c1`: > 64 µM (inactive). As to `CCOc1cc(CNC2CCC2)cc(Cl)c1OCc1ccc(F)cc1`, the IC50 is > 64 µM (inactive). Next, `CCOc1cc(CNC2CCCC2)cc(Cl)c1OCc1ccccc1F`: > 64 µM (inactive); `COc1ccc(-c2csc(-c3ccncc3)n2)cc1`: > 64 µM (inactive); `CCOc1cc(CNC2CCCC2)cc(Cl)c1OCc1ccc(OC)cc1`: > 64 µM (inactive). For the compound `COc1ccc(-c2csc(-c3cccnc3)n2)cc1`, the IC50 is > 64 µM (inactive).

Turning to `CCOc1cc(CNC2CCCCC2)cc(Cl)c1OCc1ccc(F)cc1`, the IC50 is > 64 µM (inactive). Regarding `COc1cc(CNC2CCCC2)cc(Cl)c1OCc1ccc(F)cc1`, the IC50 was > 64 µM (inactive). For the compound `CCOc1cc(CNC2CCCC2)cc(Cl)c1OCc1ccccc1Cl`, the IC50 was > 64 µM (inactive). Next, `Fc1ccc(COc2ccc(CNC3CCCC3)cc2Cl)cc1`: > 64 µM (inactive); `Clc1ccc(-c2csc(-c3ccncc3)n2)cc1`: > 64 µM (inactive).
